Measurements as given in patent publication US11780893B2, “Kv1.3 blockers” (Zealand Pharma A/S, priority 2019, dated 2023).
Read-outs that look alike come from different tables or passages of the source. Bridge positions count the residues as written; N and C are the ends. Square brackets hold non-standard residues; d marks the D form. Peptide text beside a SMILES is read from it. Nle = CCCC[C@H](N)C(=O)O

Assays:
[1] = target: T1, human Kv1.3 voltage-gated K+ channel (Homo sapiens, UniProt P22001); test: cell-based
T1 construct: host or cells: CHO-DUKX
T1 sequence (P22001 whole entry): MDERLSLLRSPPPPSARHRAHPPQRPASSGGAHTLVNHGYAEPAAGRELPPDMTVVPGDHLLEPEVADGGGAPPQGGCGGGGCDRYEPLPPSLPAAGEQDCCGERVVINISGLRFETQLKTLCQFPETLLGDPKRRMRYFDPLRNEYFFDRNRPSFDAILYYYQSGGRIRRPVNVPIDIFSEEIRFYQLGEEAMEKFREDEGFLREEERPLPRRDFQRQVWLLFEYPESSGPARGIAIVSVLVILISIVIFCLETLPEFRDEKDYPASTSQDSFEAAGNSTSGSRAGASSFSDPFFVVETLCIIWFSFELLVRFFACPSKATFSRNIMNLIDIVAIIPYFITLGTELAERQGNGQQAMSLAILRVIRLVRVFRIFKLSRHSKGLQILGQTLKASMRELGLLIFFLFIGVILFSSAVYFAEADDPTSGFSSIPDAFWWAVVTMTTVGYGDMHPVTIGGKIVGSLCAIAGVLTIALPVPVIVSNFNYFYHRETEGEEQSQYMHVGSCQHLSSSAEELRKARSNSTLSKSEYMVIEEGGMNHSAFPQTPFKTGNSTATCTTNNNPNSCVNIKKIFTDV

Kv1.1 = target: T2, Kv1.1 (Homo sapiens, UniProt Q09470); test: cell-based; conditions: for Selectivity Kv1.1/Kv1.3: ratio IC50[Kv1.1]/IC50[Kv1.3]
T2 construct: expressed in transfected cells; host or cells: Chinese Hamster Ovary (CHO)
T2 sequence (Q09470 whole entry): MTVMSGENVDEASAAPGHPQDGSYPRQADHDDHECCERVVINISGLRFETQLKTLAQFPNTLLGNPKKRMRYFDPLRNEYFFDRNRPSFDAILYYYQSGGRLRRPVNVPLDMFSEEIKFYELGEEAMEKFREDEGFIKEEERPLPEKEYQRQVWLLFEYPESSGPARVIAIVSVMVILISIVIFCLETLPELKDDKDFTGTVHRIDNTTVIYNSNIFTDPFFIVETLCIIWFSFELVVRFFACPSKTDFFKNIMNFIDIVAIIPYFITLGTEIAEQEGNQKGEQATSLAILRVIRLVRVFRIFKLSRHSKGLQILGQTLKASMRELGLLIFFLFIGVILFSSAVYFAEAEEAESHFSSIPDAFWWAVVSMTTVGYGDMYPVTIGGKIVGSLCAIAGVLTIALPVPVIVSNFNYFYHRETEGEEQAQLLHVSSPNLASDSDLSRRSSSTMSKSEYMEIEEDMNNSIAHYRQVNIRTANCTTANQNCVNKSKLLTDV

Kv1.2 = target: T3, Kv1.2 (Homo sapiens, UniProt P16389); test: cell-based
T3 construct: expressed in transfected cells; host or cells: Chinese Hamster Ovary (CHO)
T3 sequence (P16389 whole entry): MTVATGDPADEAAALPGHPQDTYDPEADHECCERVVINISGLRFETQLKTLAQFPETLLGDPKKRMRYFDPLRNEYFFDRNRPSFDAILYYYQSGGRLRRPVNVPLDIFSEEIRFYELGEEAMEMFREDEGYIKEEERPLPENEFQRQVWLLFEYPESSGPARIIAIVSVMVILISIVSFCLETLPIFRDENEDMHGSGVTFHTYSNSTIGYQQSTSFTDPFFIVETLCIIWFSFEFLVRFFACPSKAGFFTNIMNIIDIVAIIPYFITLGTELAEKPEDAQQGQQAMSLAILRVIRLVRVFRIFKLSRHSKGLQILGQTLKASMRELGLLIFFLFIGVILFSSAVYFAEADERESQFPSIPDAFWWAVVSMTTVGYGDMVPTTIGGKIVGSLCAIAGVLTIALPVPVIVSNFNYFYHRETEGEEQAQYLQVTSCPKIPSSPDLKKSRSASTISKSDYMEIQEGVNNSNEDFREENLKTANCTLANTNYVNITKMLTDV

Kv1.3 = target: T4, Kv1.3 (Homo sapiens, UniProt P22001); test: cell-based
T4 construct: expressed in transfected cells; host or cells: Chinese Hamster Ovary (CHO)
T4 sequence (P22001 whole entry): as the sequence (P22001 whole entry) above

Kv1.6 = target: T5, Kv1.6 (Homo sapiens, UniProt P17658); test: cell-based; conditions: for Selectivity Kv1.6/Kv1.3: ratio IC50[Kv1.6]/IC50[Kv1.3]
T5 construct: expressed in transfected cells; host or cells: Chinese Hamster Ovary (CHO)
T5 sequence (P17658 whole entry): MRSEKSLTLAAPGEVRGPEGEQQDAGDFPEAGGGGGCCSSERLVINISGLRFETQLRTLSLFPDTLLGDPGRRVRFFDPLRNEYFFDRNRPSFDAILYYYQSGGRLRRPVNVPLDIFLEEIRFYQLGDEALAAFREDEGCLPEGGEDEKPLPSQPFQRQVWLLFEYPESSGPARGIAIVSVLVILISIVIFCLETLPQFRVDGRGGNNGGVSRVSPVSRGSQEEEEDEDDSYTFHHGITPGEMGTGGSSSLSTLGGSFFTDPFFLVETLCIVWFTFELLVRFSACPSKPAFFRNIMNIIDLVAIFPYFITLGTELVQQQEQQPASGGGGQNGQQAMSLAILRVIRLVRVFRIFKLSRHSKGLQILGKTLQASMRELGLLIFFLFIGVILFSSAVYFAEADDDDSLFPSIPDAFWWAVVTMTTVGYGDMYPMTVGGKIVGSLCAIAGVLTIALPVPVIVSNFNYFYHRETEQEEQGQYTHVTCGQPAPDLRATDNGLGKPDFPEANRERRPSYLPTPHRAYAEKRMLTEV

Rat whole blood = Rat whole blood (Rattus norvegicus, UniProt P15384)
Sequence of Rat whole blood (P15384 whole entry): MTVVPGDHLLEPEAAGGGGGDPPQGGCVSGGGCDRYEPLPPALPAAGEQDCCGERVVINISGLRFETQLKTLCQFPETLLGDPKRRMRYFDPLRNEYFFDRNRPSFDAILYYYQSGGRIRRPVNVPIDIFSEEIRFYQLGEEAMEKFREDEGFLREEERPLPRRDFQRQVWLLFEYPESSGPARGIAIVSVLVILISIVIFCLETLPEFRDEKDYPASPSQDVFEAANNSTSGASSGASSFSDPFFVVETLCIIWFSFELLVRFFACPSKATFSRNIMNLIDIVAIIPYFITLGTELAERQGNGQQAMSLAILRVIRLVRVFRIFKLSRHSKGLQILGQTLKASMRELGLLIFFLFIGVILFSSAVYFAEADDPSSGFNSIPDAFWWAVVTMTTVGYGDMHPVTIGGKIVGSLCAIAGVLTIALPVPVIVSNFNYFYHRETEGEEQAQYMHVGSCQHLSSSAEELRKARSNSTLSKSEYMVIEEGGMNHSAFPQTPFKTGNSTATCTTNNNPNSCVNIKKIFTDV

[2] = inhibition of thallium flux, CHO-DUKX cells with human Kv1.3, read-out: IC50
[3] = CHO cells, whole-cell patch clamp, read-out: Potency IC50 (nM) Kv1.1
[4] = CHO cells, whole-cell patch clamp, read-out: Potency IC50 (nM) Kv1.2
[5] = CHO cells, whole-cell patch clamp, read-out: Potency IC50 (nM) Kv1.3
[6] = CHO cells, whole-cell patch clamp, read-out: Potency IC50 (nM) Kv1.6

SMILES	IC50 [1, 2] [nM]	IC50 (Kv1.1; [3]) [nM]	Selectivity Kv1.1/Kv1.3 (Kv1.1)	IC50 (Kv1.2; [4]) [nM]	IC50 (Kv1.3; [5]) [nM]	IC50 (Kv1.6; [6]) [nM]	IC50 (Rat whole blood) [nM]	Selectivity Kv1.6/Kv1.3 (Kv1.6)	IC50 [1] [nM]	IC50 (Kv1.1) [nM]	IC50 (Kv1.2) [nM]	IC50 (Kv1.3) [nM]	IC50 (Kv1.6) [nM]	Selectivity Kv1.2/Kv1.3 (Kv1.2; ratio IC50[Kv1.2]/IC50[Kv1.3])
CC[C@H](C)[C@@H]1NC(=O)[C@H](C)NC(=O)[C@H](CCCCN)NC(=O)[C@H](CCCCN)NC(=O)[C@@H]2CSSC[C@@H](C(=O)N[C@@H](Cc3ccc(O)cc3)C(=O)N3CCC[C@H]3C(=O)N[C@@H](CCCNC(=N)N)C(N)=O)NC(=O)[C@H](CCCCN)NC(=O)[C@@H]3CSSC[C@H](NC(=O)[C@H](CCC(=O)O)NC(=O)[C@H](C(C)C)NC(=O)[C@H](CO)NC(=O)[C@H](C)NC(=O)[C@H](CO)NC(=O)[C@@H](NC(=O)[C@H](CCCNC(=N)N)NC(=O)[C@H](CCSC)NC(=O)[C@H](CC(=O)O)NC(=O)[C@H](CCSC)NC(=O)[C@@H](N)CC(N)=O)CSSC[C@H](NC(=O)[C@H](CCCCN)NC(=O)CNC(=O)[C@H](Cc4ccccc4)NC(=O)[C@H]([C@@H](C)CC)NC(=O)[C@H](CO)NC(=O)CNC1=O)C(=O)N[C@@H](CCSC)C(=O)N[C@@H](CC(N)=O)C(=O)N[C@@H](CCCCN)C(=O)N[C@@H](CCCCN)C(=O)N3)C(=O)N[C@@H](CCCCN)C(=O)N[C@@H](CCC(N)=O)C(=O)N[C@@H](CCCCN)C(=O)N2 [Compound 19] (H-NMDMRCSASVECKQKCKKAIGSIFGKCMNKKCKCYPR-NH2; disulfide 6-27, 12-32, 16-34)	0.12	> 3000	>13500	45	0.22	435	≤ 1	–	–	–	–	–	–	–
CC[C@H](C)[C@@H]1NC(=O)[C@H](C)NC(=O)[C@H](CCCCN)NC(=O)[C@H](CC(C)C)NC(=O)[C@@H]2CSSC[C@@H](C(=O)N[C@@H](Cc3ccc(O)cc3)C(=O)N3CCC[C@H]3C(=O)N[C@@H](CCCNC(=N)N)C(N)=O)NC(=O)[C@H](CCCCN)NC(=O)[C@@H]3CSSC[C@H](NC(=O)[C@H](CCC(=O)O)NC(=O)[C@H](C(C)C)NC(=O)[C@H](CO)NC(=O)[C@H](C)NC(=O)[C@H](CO)NC(=O)[C@@H](NC(=O)[C@H](CCCNC(=N)N)NC(=O)[C@H](CCSC)NC(=O)[C@H](CC(=O)O)NC(=O)[C@H](CCSC)NC(=O)[C@@H](N)CC(N)=O)CSSC[C@H](NC(=O)[C@H](CCCCN)NC(=O)CNC(=O)[C@H](Cc4ccccc4)NC(=O)[C@H]([C@@H](C)CC)NC(=O)[C@H](CO)NC(=O)[C@H](CCCNC(=N)N)NC1=O)C(=O)N[C@@H](CCSC)C(=O)N[C@@H](CC(N)=O)C(=O)N[C@@H](CCCCN)C(=O)N[C@@H](CCCCN)C(=O)N3)C(=O)N[C@@H](CCCCN)C(=O)N[C@@H](CCC(N)=O)C(=O)N[C@@H](CCCCN)C(=O)N2 [Compound 21] (H-NMDMRCSASVECKQKCLKAIRSIFGKCMNKKCKCYPR-NH2; disulfide 6-27, 12-32, 16-34)	0.12	> 3000	>13700	57	0.22	626	≤ 1	–	–	–	–	–	–	–
CC[C@H](C)[C@@H]1NC(=O)[C@H](C)NC(=O)[C@H](CCCCN)NC(=O)[C@H](CC(C)C)NC(=O)[C@@H]2CSSC[C@@H](C(=O)N[C@@H](Cc3ccc(O)cc3)C(=O)N3CCC[C@H]3C(=O)N[C@@H](CCCNC(=N)N)C(N)=O)NC(=O)[C@H](CCCCN)NC(=O)[C@@H]3CSSC[C@H](NC(=O)[C@H](CCC(=O)O)NC(=O)[C@H](C(C)C)NC(=O)[C@H](CO)NC(=O)[C@H]([C@@H](C)CC)NC(=O)[C@H](CO)NC(=O)[C@@H](NC(=O)[C@H](CCCNC(=N)N)NC(=O)[C@H](CCSC)NC(=O)[C@H](CC(=O)O)NC(=O)[C@H](CCSC)NC(=O)[C@@H](N)CC(N)=O)CSSC[C@H](NC(=O)[C@H](CCCCN)NC(=O)CNC(=O)[C@H](Cc4ccccc4)NC(=O)[C@H]([C@@H](C)CC)NC(=O)[C@H](CO)NC(=O)CNC1=O)C(=O)N[C@@H](CCSC)C(=O)N[C@@H](CC(N)=O)C(=O)N[C@@H](CCCCN)C(=O)N[C@@H](CCCCN)C(=O)N3)C(=O)N[C@@H](CCCCN)C(=O)N[C@@H](CCC(N)=O)C(=O)N[C@@H](CCCCN)C(=O)N2 [Compound 26] (H-NMDMRCSISVECKQKCLKAIGSIFGKCMNKKCKCYPR-NH2; disulfide 6-27, 12-32, 16-34)	0.092	> 3000	>11800	43	0.26	> 3000	≤ 1	>11800	–	–	–	–	–	–
CC[C@H](C)[C@@H]1NC(=O)[C@H](C)NC(=O)[C@H](CCCCN)NC(=O)[C@H](CC(C)C)NC(=O)[C@@H]2CSSC[C@@H](C(=O)N[C@@H](Cc3ccc(O)cc3)C(=O)N3CCC[C@H]3C(=O)N[C@@H](CCCNC(=N)N)C(N)=O)NC(=O)[C@H](CCCCN)NC(=O)[C@@H]3CSSC[C@H](NC(=O)[C@H](CCC(=O)O)NC(=O)[C@H](CCCNC(=N)N)NC(=O)[C@H](CO)NC(=O)[C@H](C)NC(=O)[C@H](CO)NC(=O)[C@@H](NC(=O)[C@H](CCCNC(=N)N)NC(=O)[C@H](CCSC)NC(=O)[C@H](CC(=O)O)NC(=O)[C@H](CCSC)NC(=O)[C@@H](N)CC(N)=O)CSSC[C@H](NC(=O)[C@H](CCCCN)NC(=O)CNC(=O)[C@H](Cc4ccccc4)NC(=O)[C@H]([C@@H](C)CC)NC(=O)[C@H](CO)NC(=O)CNC1=O)C(=O)N[C@@H](CCSC)C(=O)N[C@@H](CC(N)=O)C(=O)N[C@@H](CCCCN)C(=O)N[C@@H](CCCCN)C(=O)N3)C(=O)N[C@@H](CCCCN)C(=O)N[C@@H](CCC(N)=O)C(=O)N[C@@H](CCCCN)C(=O)N2 [Compound 27] (H-NMDMRCSASRECKQKCLKAIGSIFGKCMNKKCKCYPR-NH2; disulfide 6-27, 12-32, 16-34)	0.065	> 3000	>25900	11	0.12	206	≤ 1	–	–	–	–	–	–	–
CCCC[C@@H]1NC(=O)[C@@H]2CSSC[C@H](NC(=O)[C@H](CCCNC(=N)N)NC(=O)[C@H](CCCC)NC(=O)[C@H](CCC(=O)O)NC(=O)[C@@H](NC(=O)[C@@H]3CCCN3)[C@@H](C)CC)C(=O)N[C@@H](CO)C(=O)N[C@@H](C)C(=O)N[C@@H](CO)C(=O)N[C@@H](C(C)C)C(=O)N[C@@H](CCC(=O)O)C(=O)N[C@H]3CSSC[C@H](NC(=O)[C@H](CCCCN)NC(=O)[C@H](CCCCN)NC(=O)[C@H](CC(N)=O)NC1=O)C(=O)N[C@@H](CCCCN)C(=O)N[C@H](C(=O)N[C@@H](Cc1ccc(O)cc1)C(=O)N1CCC[C@H]1C(=O)N[C@@H](CCCNC(=N)N)C(=O)O)CSSC[C@H](NC(=O)[C@H](CCCCN)NC(=O)[C@H](CCC(N)=O)NC(=O)[C@H](CCCCN)NC3=O)C(=O)N[C@@H](CC(C)C)C(=O)N[C@@H](CCCCN)C(=O)N[C@@H](C)C(=O)N[C@@H]([C@@H](C)CC)C(=O)NCC(=O)N[C@@H](CO)C(=O)N[C@@H]([C@@H](C)CC)C(=O)N[C@@H](Cc1ccccc1)C(=O)NCC(=O)N[C@@H](CCCCN)C(=O)N2 [Compound 96] (H-PIE[Nle]RCSASVECKQKCLKAIGSIFGKC[Nle]NKKCKCYPR-OH; disulfide 6-27, 12-32, 16-34)	–	–	–	–	–	–	–	–	0.15	> 3000	1760	0.39	> 3000	–
CCCC[C@@H]1NC(=O)[C@@H]2CSSC[C@H](N)C(=O)N[C@@H](CO)C(=O)N[C@@H](C)C(=O)N[C@@H](CO)C(=O)N[C@@H](C(C)C)C(=O)N[C@@H](CCC(=O)O)C(=O)N[C@H]3CSSC[C@H](NC(=O)[C@H](CCCCN)NC(=O)[C@H](CCCCN)NC(=O)[C@H](CC(N)=O)NC1=O)C(=O)N[C@@H](CCCCN)C(=O)N[C@H](C(=O)N[C@@H](Cc1ccc(O)cc1)C(=O)N1CCC[C@H]1C(=O)N[C@@H](CCCNC(=N)N)C(N)=O)CSSC[C@H](NC(=O)[C@H](CCCCN)NC(=O)[C@H](CCC(N)=O)NC(=O)[C@H](CCCCN)NC3=O)C(=O)N[C@@H](CC(C)C)C(=O)N[C@@H](CCCCN)C(=O)N[C@@H](C)C(=O)N[C@@H]([C@@H](C)CC)C(=O)NCC(=O)N[C@@H](CO)C(=O)N[C@@H]([C@@H](C)CC)C(=O)N[C@@H](Cc1ccccc1)C(=O)NCC(=O)N[C@@H](CCCCN)C(=O)N2 [Compound 104] (H-CSASVECKQKCLKAIGSIFGKC[Nle]NKKCKCYPR-NH2; disulfide 1-22, 7-27, 11-29)	0.12	> 3000	>7000	> 3000	0.43	> 3000	–	>7000	–	–	–	–	–	>7000
CC[C@H](C)[C@@H]1NC(=O)[C@H](C)NC(=O)[C@H](CCCCN)NC(=O)[C@H](CC(C)C)NC(=O)[C@@H]2CSSC[C@@H](C(=O)N[C@@H](Cc3ccc(O)cc3)C(=O)N3CCC[C@H]3C(=O)N[C@@H](CCCNC(=N)N)C(=O)O)NC(=O)[C@H](CCCCN)NC(=O)[C@@H]3CSSC[C@H](NC(=O)[C@H](CCC(=O)O)NC(=O)[C@H](C(C)C)NC(=O)[C@H](CO)NC(=O)[C@H](C)NC(=O)[C@H](CO)NC(=O)[C@@H](N)CSSC[C@H](NC(=O)[C@H](CCCCN)NC(=O)CNC(=O)[C@H](Cc4ccccc4)NC(=O)[C@H]([C@@H](C)CC)NC(=O)[C@H](CO)NC(=O)CNC1=O)C(=O)N[C@@H](CCSC)C(=O)N[C@@H](CC(N)=O)C(=O)N[C@@H](CCCCN)C(=O)N[C@@H](CCCCN)C(=O)N3)C(=O)N[C@@H](CCCCN)C(=O)N[C@@H](CCC(N)=O)C(=O)N[C@@H](CCCCN)C(=O)N2 [Compound 117] (H-CSASVECKQKCLKAIGSIFGKCMNKKCKCYPR-OH; disulfide 1-22, 7-27, 11-29)	1.5	> 3000	>1400	1830	2.09	> 3000	–	>1400	–	–	–	–	–	–
